What was measured:
Type in all cases: in vivo
[1] = system: barnyardgrass (Echinochloa crus-galli); test: Test A preemergence; settings: for Plant response rating, Barnyardgrass: 125 g ai/ha; for Barnyardgrass plant response rating (0 to 100 scale, 0 is no effect, 100 is complete control): 500 g ai/ha, visual injury approx. 10 d
Excerpt: (§1) Seeds of plant species selected from barnyardgrass (Echinochloa crus-galli), Kochia (Kochia scoparia), ragweed (common ragweed, Ambrosia elatior), ryegrass, Italian (Italian ryegrass, Lolium multiflorum), crabgrass, large (Digitaria sanguinalis), giant foxtail (Setaria faberii), green foxtail (Setaria viridis), morningglory (Ipomoea spp.), pigweed (Amaranthus retroflexus), velvetleaf (Abutilon theophrasti), wheat (Triticum aestivum), and corn (Zea mays) were planted into a blend of loam soil and sand and treated preemergence with a directed soil spray using test chemicals formulated in anon-phytotoxic solvent mixture which included a surfactant.
(§2) At the same time, plants selected from these crop and weed species and also blackgrass (Alopecurus myosuroides), and Galium (catchweed bedstraw, Galium aparine) were planted in pots containing the same blend of loam soil and sand and treated with postemergence applications of test chemicals formulated in the same manner. Plants ranged in height from 2 to 10 cm and were in the one- to two-leaf stage for the postemergence treatment. Treated plants and untreated controls were maintained in a greenhouse for approximately 10 d, after which time all treated plants were compared to untreated controls and visually evaluated for injury. Plant response ratings, summarized in Table A, are based on a 0 to 100 scale where 0 is no effect and 100 is complete control. A dash (-) response means no test result.

[2] = system: ragweed (common ragweed, Ambrosia elatior); test: Test A preemergence; settings: for Plant response rating, Ragweed: 125 g ai/ha; for Ragweed plant response rating (0 to 100 scale, 0 is no effect, 100 is complete control): 500 g ai/ha, visual injury approx. 10 d
Excerpt: as §1, §2

Kochia (Kochia scoparia) [3] = test: Test A preemergence; settings: for Plant response rating, Kochia: 125 g ai/ha; for Kochia plant response rating (0 to 100 scale, 0 is no effect, 100 is complete control): 500 g ai/ha, visual injury approx. 10 d
Excerpt: as §1, §2

[4] = system: giant foxtail (Setaria faberii); test: Test A preemergence; settings: for Plant response rating, Foxtail, Giant: 125 g ai/ha; for Foxtail, Giant plant response rating (0 to 100 scale, 0 is no effect, 100 is complete control): 500 g ai/ha, visual injury approx. 10 d
Excerpt: as §1, §2

[5] = system: pigweed (Amaranthus retroflexus); test: Test A preemergence; settings: for Plant response rating, Pigweed: 125 g ai/ha; for Pigweed plant response rating (0 to 100 scale, 0 is no effect, 100 is complete control): 500 g ai/ha, visual injury approx. 10 d
Excerpt: as §1, §2

[6] = system: ryegrass, Italian (Italian ryegrass, Lolium multiflorum); test: Test A preemergence; settings: for Plant response rating, Ryegrass, Italian: 125 g ai/ha; for Ryegrass, Italian plant response rating (0 to 100 scale, 0 is no effect, 100 is complete control): 500 g ai/ha, visual injury approx. 10 d
Excerpt: as §1, §2

[7] = system: wheat (Triticum aestivum); test: Test A postemergence
Excerpt: as §1, §2

corn (Zea mays) = test: Test A postemergence
Excerpt: as §1, §2

[8] = system: barnyardgrass (Echinochloa crus-galli); test: Test A postemergence; settings: for Barnyardgrass plant response rating: visual injury rating on 0 to 100 scale (0 no effect, 100 complete control), approx. 10 d
Excerpt: as §1, §2

[9] = system: blackgrass (Alopecurus myosuroides); test: Test A postemergence; settings: for Blackgrass plant response rating: visual injury rating on 0 to 100 scale (0 no effect, 100 complete control), approx. 10 d
Excerpt: as §1, §2

[10] = system: ragweed (common ragweed, Ambrosia elatior); test: Test A postemergence
Excerpt: as §1, §2

Kochia (Kochia scoparia) [11] = test: Test A postemergence
Excerpt: as §1, §2

[12] = system: giant foxtail (Setaria faberii); test: Test A postemergence
Excerpt: as §1, §2

[13] = system: Galium (catchweed bedstraw, Galium aparine); test: Test A postemergence
Excerpt: as §1, §2

[14] = system: pigweed (Amaranthus retroflexus); test: Test A postemergence
Excerpt: as §1, §2

[15] = system: ryegrass, Italian (Italian ryegrass, Lolium multiflorum); test: Test A postemergence
Excerpt: as §1, §2

[16] = preemergence, 0 to 100 scale (0 no effect, 100 complete control)
[17] = 125 g ai/ha, postemergence, visual injury rating on 0 to 100 scale (0 no effect, 100 complete control), approx. 10 d
[18] = 500 g ai/ha, postemergence, 0 to 100 scale, 0 no effect, 100 complete control
[19] = Preemergence, visual injury after approximately 10 d, 0 to 100 scale where 0 is no effect and 100 is complete control
[20] = 125 g ai/ha, postemergence, visual rating after approx. 10 d, 0 to 100 scale (0 no effect, 100 complete control)
[21] = Postemergence, 500 g ai/ha, 0 to 100 scale where 0 is no effect and 100 is complete control

COC(=O)c1ccccc1NC(=O)C1C(=O)NCC1c1ccc(F)c(F)c1 (centres unmarked) [Compound 417]
Plant response rating, Barnyardgrass [1, 16]: 0 | Barnyardgrass plant response rating (0 to 100 scale, 0 is no effect, 100 is complete control) ([1]; Preemergence): 0 | Plant response rating, Ragweed [2, 16]: 0 | Ragweed plant response rating (0 to 100 scale, 0 is no effect, 100 is complete control) ([2]; Preemergence): 0 | Plant response rating, Kochia (Kochia (Kochia scoparia) [3]; [16]): 0 | Kochia plant response rating (0 to 100 scale, 0 is no effect, 100 is complete control) (Kochia (Kochia scoparia) [3]; Preemergence): 0 | Plant response rating, Foxtail, Giant [4, 16]: 0 | Foxtail, Giant plant response rating (0 to 100 scale, 0 is no effect, 100 is complete control) ([4]; Preemergence): 0 | Plant response rating, Pigweed [5, 16]: 0 | Pigweed plant response rating (0 to 100 scale, 0 is no effect, 100 is complete control) ([5]; Preemergence): 0 | Plant response rating, Ryegrass, Italian [6, 16]: 0 | Ryegrass, Italian plant response rating (0 to 100 scale, 0 is no effect, 100 is complete control) ([6]; Preemergence): 0 | Wheat plant response rating [7, 17]: 0 | Plant response rating, Wheat [7, 18]: 0 | Corn plant response rating (corn (Zea mays); [17]): 0 | Plant response rating, Corn (corn (Zea mays); [18]): 0 | Barnyardgrass plant response rating ([8]; 125 g ai/ha, postemergence): 0 | Plant response rating, Barnyardgrass [8, 18]: 0 | Blackgrass plant response rating ([9]; 125 g ai/ha, postemergence): 0 | Plant response rating, Blackgrass [9, 18]: 0 | Ragweed plant response rating [10, 17]: 0 | Plant response rating, Ragweed [10, 18]: 0 | Kochia plant response rating (Kochia (Kochia scoparia) [11]; [17]): 0 | Plant response rating, Kochia (Kochia (Kochia scoparia) [11]; [18]): 0 | Foxtail, Giant plant response rating [12, 17]: 0 | Plant response rating, Foxtail, Giant [12, 18]: 0 | Galium plant response rating [13, 17]: 0 | Plant response rating, Galium [13, 18]: 0 | Pigweed plant response rating [14, 17]: 0 | Plant response rating, Pigweed [14, 18]: 0 | Ryegrass, Italian plant response rating [15, 17]: 0 | Plant response rating, Ryegrass, Italian [15, 18]: 0

CCc1cccc(C2CN(C)C(=O)C2C(=O)Nc2ccccc2F)c1 (centres unmarked) [Compound 567]
Plant response rating, Barnyardgrass [1, 19]: 100 | Barnyardgrass plant response rating (0 to 100 scale, 0 is no effect, 100 is complete control) ([1]; Preemergence): 100 | Plant response rating, Ragweed [2, 19]: 50 | Ragweed plant response rating (0 to 100 scale, 0 is no effect, 100 is complete control) ([2]; Preemergence): 60 | Plant response rating, Kochia (Kochia (Kochia scoparia) [3]; [19]): 60 | Kochia plant response rating (0 to 100 scale, 0 is no effect, 100 is complete control) (Kochia (Kochia scoparia) [3]; Preemergence): 80 | Plant response rating, Foxtail, Giant [4, 19]: 100 | Foxtail, Giant plant response rating (0 to 100 scale, 0 is no effect, 100 is complete control) ([4]; Preemergence): 100 | Plant response rating, Pigweed [5, 19]: 20 | Pigweed plant response rating (0 to 100 scale, 0 is no effect, 100 is complete control) ([5]; Preemergence): 40 | Plant response rating, Ryegrass, Italian [6, 19]: 60 | Ryegrass, Italian plant response rating (0 to 100 scale, 0 is no effect, 100 is complete control) ([6]; Preemergence): 80 | Plant response rating, Wheat [7, 20]: 30 | Plant response rating, Wheat [7, 21]: 60 | Plant response rating, Corn (corn (Zea mays); [20]): 70 | Plant response rating, Corn (corn (Zea mays); [21]): 90 | Plant response rating, Barnyardgrass [8, 20]: 90 | Plant response rating, Barnyardgrass [8, 21]: 100 | Plant response rating, Blackgrass [9, 20]: 60 | Plant response rating, Blackgrass [9, 21]: 80 | Plant response rating, Ragweed [10, 20]: 0 | Plant response rating, Ragweed [10, 21]: 0 | Plant response rating, Kochia (Kochia (Kochia scoparia) [11]; [20]): 20 | Plant response rating, Kochia (Kochia (Kochia scoparia) [11]; [21]): 50 | Plant response rating, Foxtail, Giant [12, 20]: 90 | Plant response rating, Foxtail, Giant [12, 21]: 90 | Plant response rating, Galium [13, 20]: 40 | Plant response rating, Galium [13, 21]: 50 | Plant response rating, Pigweed [14, 20]: 20 | Plant response rating, Pigweed [14, 21]: 20 | Plant response rating, Ryegrass, Italian [15, 20]: 70 | Plant response rating, Ryegrass, Italian [15, 21]: 70

CN1CC(c2ccc(Br)cc2)C(C(=O)Nc2ccccc2S(C)(=O)=O)C1=O (centres unmarked) [Compound 565]
Plant response rating, Barnyardgrass [1, 19]: 80 | Barnyardgrass plant response rating (0 to 100 scale, 0 is no effect, 100 is complete control) ([1]; Preemergence): 90 | Plant response rating, Ragweed [2, 19]: 50 | Ragweed plant response rating (0 to 100 scale, 0 is no effect, 100 is complete control) ([2]; Preemergence): 50 | Plant response rating, Kochia (Kochia (Kochia scoparia) [3]; [19]): 70 | Kochia plant response rating (0 to 100 scale, 0 is no effect, 100 is complete control) (Kochia (Kochia scoparia) [3]; Preemergence): 90 | Plant response rating, Foxtail, Giant [4, 19]: 90 | Foxtail, Giant plant response rating (0 to 100 scale, 0 is no effect, 100 is complete control) ([4]; Preemergence): 90 | Plant response rating, Pigweed [5, 19]: 70 | Pigweed plant response rating (0 to 100 scale, 0 is no effect, 100 is complete control) ([5]; Preemergence): 80 | Plant response rating, Ryegrass, Italian [6, 19]: 0 | Ryegrass, Italian plant response rating (0 to 100 scale, 0 is no effect, 100 is complete control) ([6]; Preemergence): 40 | Plant response rating, Wheat [7, 20]: 0 | Plant response rating, Wheat [7, 21]: 40 | Plant response rating, Corn (corn (Zea mays); [20]): 0 | Plant response rating, Corn (corn (Zea mays); [21]): 20 | Plant response rating, Barnyardgrass [8, 20]: 80 | Plant response rating, Barnyardgrass [8, 21]: 90 | Plant response rating, Blackgrass [9, 20]: 40 | Plant response rating, Blackgrass [9, 21]: 60 | Plant response rating, Ragweed [10, 20]: 0 | Plant response rating, Ragweed [10, 21]: 50 | Plant response rating, Kochia (Kochia (Kochia scoparia) [11]; [20]): 20 | Plant response rating, Kochia (Kochia (Kochia scoparia) [11]; [21]): 60 | Plant response rating, Foxtail, Giant [12, 20]: 80 | Plant response rating, Foxtail, Giant [12, 21]: 90 | Plant response rating, Galium [13, 20]: 60 | Plant response rating, Galium [13, 21]: 60 | Plant response rating, Pigweed [14, 20]: 20 | Plant response rating, Pigweed [14, 21]: 60 | Plant response rating, Ryegrass, Italian [15, 20]: 20 | Plant response rating, Ryegrass, Italian [15, 21]: 30

O=C(Nc1cccc(F)c1F)C1C(=O)N(CC=CBr)CC1c1cccc(C(F)(F)F)c1 (centres unmarked) [Compound 527]
Plant response rating, Barnyardgrass [1, 19]: 0 | Barnyardgrass plant response rating (0 to 100 scale, 0 is no effect, 100 is complete control) ([1]; Preemergence): 20 | Plant response rating, Ragweed [2, 19]: 0 | Ragweed plant response rating (0 to 100 scale, 0 is no effect, 100 is complete control) ([2]; Preemergence): 0 | Plant response rating, Kochia (Kochia (Kochia scoparia) [3]; [19]): 0 | Kochia plant response rating (0 to 100 scale, 0 is no effect, 100 is complete control) (Kochia (Kochia scoparia) [3]; Preemergence): 0 | Plant response rating, Foxtail, Giant [4, 19]: 80 | Foxtail, Giant plant response rating (0 to 100 scale, 0 is no effect, 100 is complete control) ([4]; Preemergence): 80 | Plant response rating, Pigweed [5, 19]: 0 | Pigweed plant response rating (0 to 100 scale, 0 is no effect, 100 is complete control) ([5]; Preemergence): 0 | Plant response rating, Ryegrass, Italian [6, 19]: 0 | Ryegrass, Italian plant response rating (0 to 100 scale, 0 is no effect, 100 is complete control) ([6]; Preemergence): 0 | Plant response rating, Wheat [7, 20]: 0 | Plant response rating, Wheat [7, 21]: 0 | Plant response rating, Corn (corn (Zea mays); [20]): 0 | Plant response rating, Corn (corn (Zea mays); [21]): 0 | Barnyardgrass plant response rating ([8]; 125 g ai/ha, postemergence): 0 | Plant response rating, Barnyardgrass [8, 21]: 20 | Blackgrass plant response rating ([9]; 125 g ai/ha, postemergence): 0 | Plant response rating, Blackgrass [9, 21]: 0 | Plant response rating, Ragweed [10, 20]: 0 | Plant response rating, Ragweed [10, 21]: 0 | Plant response rating, Kochia (Kochia (Kochia scoparia) [11]; [20]): 0 | Plant response rating, Kochia (Kochia (Kochia scoparia) [11]; [21]): 0 | Plant response rating, Foxtail, Giant [12, 20]: 0 | Plant response rating, Foxtail, Giant [12, 21]: 20 | Plant response rating, Galium [13, 20]: 0 | Plant response rating, Galium [13, 21]: 0 | Plant response rating, Pigweed [14, 20]: 0 | Plant response rating, Pigweed [14, 21]: 0 | Plant response rating, Ryegrass, Italian [15, 20]: 0 | Plant response rating, Ryegrass, Italian [15, 21]: 0
